For one experiment, the target named is human KHK-C (Homo sapiens (Human), UniProt P50053). Description: KHK Biochemical Assay (IC50), ADP-Glo, KHK-C. The note with it: ADP-Glo; average of at least two separate assays. Summed up:
(§1)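 Luminescent ADP-Glo read-out of ADP made by His-tagged KHK (BL21 (DE3) expression, Ni-NTA). Enzyme and compound sat together 30 min before ATP/fructose addition, then reacted 4 h at RT in Hepes pH 7.4 buffer with KCl, MgCl2, Triton-X. Quench 1 h, detection 1 h.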

Another experiment addresses human KHK-A (Homo sapiens (Human), UniProt P50053). Briefly: KHK Biochemical Assay (IC50), ADP-Glo, KHK-A. The settings on record: ADP-Glo; average of at least two separate assays. A digest of the protocol: as §1
The target of experiment [1] is KHK-C expressed in NRK-52E cells (Homo sapiens (Human), UniProt P50053). Description: KHK-C Cell-based Assay (EC50), NRK CTG, fructose-mediated ATP-depletion.
Method: Compounds were tested in a high-throughput 384-well assay format for their ability to attenuate fructose-mediated ATP-depletion in Normal Rat Kidney epithelial cells (NRK-52E) using the Cell-Titer Glo (CTG) assay, which measures cellular ATP levels based on luminescence signal by using the luciferase-luciferin system. Compounds were serially diluted (1:3) in DMSO.
The plates were incubated at 37° C., 5% CO2 for one day. Cells were then transduced on day 2 with 200 MOI of Adenovirus (VQAd KHKC C-(K)-DYK ViraQuest Inc.) using the same medium and method as day-1 to induce KHK-C expression in the cells. Cells were incubated at 37° C., 5% CO2 for one day. On day-3, the medium was changed to DMEM medium (Corning, Catalog #10-014-CM) with 0.5% FBS and Penicillin-Streptomycin after washing the cells twice with sterile PBS on the BioTEK EL406 washer and dispenser. Test compounds were then diluted 200-fold into the assay plates using the BioMek FX and were incubated for 1 hour at 37° C., 5% CO2. 25 mM (final concentration) of fructose was then dispensed into the plates using the BioTEK EL406 dispenser and the plates were incubated at 37° C., 5% CO2 for 48 hours before addition of CTG reagent and measurement of luminescence signal.

The structures appear in SMILES notation. Where two headings read alike, the source gives them in different places.

Sequence of KHK-C expressed in NRK-52E cells (P50053 whole entry): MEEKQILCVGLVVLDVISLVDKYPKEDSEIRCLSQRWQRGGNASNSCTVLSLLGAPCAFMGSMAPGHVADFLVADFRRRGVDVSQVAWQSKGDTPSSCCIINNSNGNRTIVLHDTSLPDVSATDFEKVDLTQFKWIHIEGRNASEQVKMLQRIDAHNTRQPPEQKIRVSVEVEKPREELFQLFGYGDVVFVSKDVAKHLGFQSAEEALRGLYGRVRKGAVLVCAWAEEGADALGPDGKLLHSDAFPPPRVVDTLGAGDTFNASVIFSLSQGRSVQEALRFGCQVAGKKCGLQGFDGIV
Sequence of human KHK-C (P50053 whole entry): as above
Sequence of human KHK-A (P50053 other isoform, or with tags, fused parts or gaps): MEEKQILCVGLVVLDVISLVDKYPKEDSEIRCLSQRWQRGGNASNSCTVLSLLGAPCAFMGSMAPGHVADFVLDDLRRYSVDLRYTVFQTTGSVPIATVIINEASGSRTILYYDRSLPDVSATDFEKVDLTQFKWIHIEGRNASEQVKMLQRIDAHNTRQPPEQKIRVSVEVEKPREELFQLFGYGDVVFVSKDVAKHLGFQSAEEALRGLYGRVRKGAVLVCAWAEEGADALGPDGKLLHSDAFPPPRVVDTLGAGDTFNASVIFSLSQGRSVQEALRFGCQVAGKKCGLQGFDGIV

For `Cc1ccc(-c2nc(N3CC[C@@H]3C)nc3c2CCC3)cc1C(N)=O` [Example 27, (S)-2-methyl-5-(2-(2-methylazetidin-1-yl)-6,7-dihydro-5H-cyclopenta[d]pyrimidin-4-yl)benzamide], the IC50 at human KHK-C was 59.7 nM; on human KHK-A, 58.9 nM. The compound further registered an EC50 in experiment [1] of 229 nM.
The corresponding values for `CNC(=O)c1cccc(-c2nc(N3CC[C@@H]3C)nc3c2CCC3)c1` [Example 28, (S)—N-methyl-3-(2-(2-methylazetidin-1-yl)-6,7-dihydro-5H-cyclopenta[d]pyrimidin-4-yl)benzamide] are 50.3 nM, 55.2 nM and 137 nM.
On to `C[C@H]1CCN1c1nc2c(c(-c3cccc(CCC(N)=O)c3)n1)CCC2` [Example 29], for which the IC50 against human KHK-C is 33 nM; at human KHK-A it was 55.3 nM. The EC50 in experiment [1] was found to be 120 nM.
As for `Cc1ncc(-c2nc(N3CC[C@@H]3C)nc3c2CCC3)s1` [Example 34, (S)-2-methyl-5-(2-(2-methylazetidin-1-yl)-6,7-dihydro-5H-cyclopenta[d]pyrimidin-4-yl)thiazole], the IC50 at human KHK-C turned out to be 64.5 nM; at human KHK-A it was 52.7 nM. The compound also had an EC50 in experiment [1] of 142 nM.
For the compound `C[C@H]1CCN1c1nc2c(c(-c3cscn3)n1)CCC2` [Example 36, (S)-4-(2-(2-methylazetidin-1-yl)-6,7-dihydro-5H-cyclopenta[d]pyrimidin-4-yl)thiazole], the IC50 is 146 nM on human KHK-C and 147 nM against human KHK-A. Also, the EC50 in experiment [1] is 434 nM.
Turning to `C[C@H]1[C@H](O)CN1c1nc(-c2cccc(S(N)(=O)=O)c2)c2c(cnn2C)n1` [Example 38], the values for the IC50 at human KHK-C and against human KHK-A were 836 nM and 812 nM, respectively. The compound further displayed an EC50 in experiment [1] of 12200 nM.
For `C[C@H]1CCN1c1nc2c(c(-c3ccc4[nH]ncc4c3)n1)CCC2` [Example 39, (S)-5-(2-(2-methylazetidin-1-yl)-6,7-dihydro-5H-cyclopenta[d]pyrimidin-4-yl)-1H-indazole], the 50% inhibitory concentration (IC50) on human KHK-C was determined as 113 nM; at human KHK-A it was 86.2 nM. For the same compound, the response in experiment [1] was half-maximal at 211 nM (EC50).
The corresponding values for `CC(=O)Nc1cccc(-c2nc(N3C[C@@H](O)[C@@H]3C)nc3c2CCC3)c1` [Example 41] are 125 nM, 102 nM and 602 nM.
On to `C[C@H]1[C@H](O)CN1c1nc2c(c(-c3cccc(NS(C)(=O)=O)c3)n1)CCC2` [Example 43, N-(3-(2-((2S,3R)-3-hydroxy-2-methylazetidin-1-yl)-6,7-dihydro-5H-cyclopenta[d]pyrimidin-4-yl)phenyl)methanesulfonamide], for which the IC50 is 48.1 nM on human KHK-C and 66.8 nM against human KHK-A. The compound further gave an EC50 in experiment [1] of 225 nM.
For `C[C@H]1CCN1c1nc2c(c(-c3ccc4cn[nH]c4c3)n1)CCC2` [Example 44, (S)-6-(2-(2-methylazetidin-1-yl)-6,7-dihydro-5H-cyclopenta[d]pyrimidin-4-yl)-1H-indazole], the figures for the IC50 against human KHK-C and at human KHK-A were 259 nM and 286 nM, respectively. Moreover, the EC50 in experiment [1] stood at 329 nM.
Turning to `C[C@H]1[C@H](O)CN1c1nc2c(c(-c3cccc(C4CC4C(=O)O)c3)n1)CCC2` (stereo partly drawn) [Example 47, 2-(3-(2-((2S,3R)-3-hydroxy-2-methylazetidin-1-yl)-6,7-dihydro-5H-cyclopenta[d]pyrimidin-4-yl)phenyl)cyclopropane-1-carboxylic acid], the values for the IC50 against human KHK-C and on human KHK-A were 15.2 nM and 29.4 nM, respectively. The same compound displayed an EC50 in experiment [1] of 2370 nM.
As for `C[C@H]1[C@H](F)CN1c1nc2c(c(-c3cccc(C4CC4C(=O)O)c3)n1)CCC2` (stereo partly drawn) [Example 48], the results for the IC50 against human KHK-C and against human KHK-A were 5.3 nM and 7.1 nM, respectively. Further, in experiment [1], the EC50 is 77.1 nM.
With `C[C@H]1[C@H](O)CN1c1nc2c(c(-c3ccc(C(N)=O)s3)n1)CCC2` [Example 57, 5-(2-((2S,3R)-3-hydroxy-2-methylazetidin-1-yl)-6,7-dihydro-5H-cyclopenta[d]pyrimidin-4-yl)thiophene-2-carboxamide], the values for the IC50 on human KHK-C and at human KHK-A were 17.8 nM and 12.9 nM, respectively. Moreover, the EC50 in experiment [1] was 65.8 nM.
As for `C[C@H]1[C@H](F)CN1c1nc2c(c(-c3ccc(C(N)=O)s3)n1)CCC2` [Example 58], the IC50 against human KHK-C is 7.9 nM; against human KHK-A it was 5.8 nM. In experiment [1], this compound yielded an EC50 of 9.5 nM.
Regarding `C[C@H]1CCN1c1nc(-c2cccc(C(N)=O)c2)c2c(n1)[C@@H]1CC[C@H]2C1` [Example 63, 3-((5S,8R)-2-((S)-2-methylazetidin-1-yl)-5,6,7,8-tetrahydro-5,8-methanoquinazolin-4-yl)benzamide], the IC50 at human KHK-C amounted to 95.3 nM; on human KHK-A, 112 nM. The midpoint of the response in experiment [1], the EC50, lay at 138 nM.
Turning to `C[C@H]1CCN1c1nc2c(c(-c3cccc(C(=O)NCC(=O)O)c3)n1)CCC2` [Example 66, (S)-(3-(2-(2-methylazetidin-1-yl)-6,7-dihydro-5H-cyclopenta[d]pyrimidin-4-yl)benzoyl)glycine], the IC50 against human KHK-C was found to be 54.5 nM; against human KHK-A, 64.8 nM. The same compound registered an EC50 in experiment [1] of 35500 nM.
Turning to `C[C@H]1CCN1c1nc2c(c(-c3ccc4[nH]nc(CC(=O)O)c4c3)n1)CCC2` [Example 70, (S)-2-(5-(2-(2-methylazetidin-1-yl)-6,7-dihydro-5H-cyclopenta[d]pyrimidin-4-yl)-1H-indazol-3-yl)acetic acid], the figures for the IC50 at human KHK-C and against human KHK-A were 51.7 nM and 29.4 nM, respectively. For the same compound, in experiment [1], the EC50 is over 5000 nM.
Turning to `C[C@H]1CCN1c1nc2c(c(-c3ccc4c(c3)S(=O)(=O)NC4)n1)CCC2` [Example 72, (S)-6-(2-(2-methylazetidin-1-yl)-6,7-dihydro-5H-cyclopenta[d]pyrimidin-4-yl)-2,3-dihydrobenzo[d]isothiazole 1,1-dioxide], the figures for the IC50 on human KHK-C and against human KHK-A were 15 nM and 18 nM, respectively. In addition, the EC50 in experiment [1] turned out to be 29.8 nM.
Taken in the same sequence, the figures for `C[C@H]1CCN1c1nc2c(c(-c3cccc(S(=O)(=O)NCC(=O)O)c3)n1)CCC2` [Example 74, (S)-((3-(2-(2-methylazetidin-1-yl)-6,7-dihydro-5H-cyclopenta[d]pyrimidin-4-yl)phenyl)sulfonyl)glycine] were 26.3 nM, 22.9 nM and 859 nM.
On to `C[C@H]1CCN1c1nc2c(c(-c3cccc(NS(=O)(=O)CC(=O)O)c3)n1)CCC2` [Example 81, (S)-2-(N-(3-(2-(2-methylazetidin-1-yl)-6,7-dihydro-5H-cyclopenta[d]pyrimidin-4-yl)phenyl)sulfamoyl)acetic acid], for which the IC50 at human KHK-C came out at 7.6 nM; on human KHK-A it was 9.5 nM. Also, the EC50 in experiment [1] is over 5000 nM.
For `C[C@H]1[C@H](O)CN1c1nc2c(c(-c3cccc(NS(=O)(=O)CC(=O)O)c3)n1)CCC2` [Example 82], the IC50 at human KHK-C and on human KHK-A was 14.9 nM each time. In addition, the EC50 in experiment [1] is over 5000 nM.
With `C[C@H]1CCN1c1nc2c(c(-c3cccc(NS(=O)(=O)CCC(=O)O)c3)n1)CCC2` [Example 83, (S)-3-(N-(3-(2-(2-methylazetidin-1-yl)-6,7-dihydro-5H-cyclopenta[d]pyrimidin-4-yl)phenyl)sulfamoyl)propanoic acid], the IC50 at human KHK-C worked out at 10.3 nM; at human KHK-A, 32.5 nM. The compound also displayed an EC50 in experiment [1] of over 5000 nM.
On to `C[C@H]1CCN1c1nc2c(c(-c3ccc4c(c3)S(=O)(=O)NC4=O)n1)CCC2` [Example 86, (S)-6-(2-(2-methylazetidin-1-yl)-6,7-dihydro-5H-cyclopenta[d]pyrimidin-4-yl)benzo[d]isothiazol-3(2H)-one 1,1-dioxide], for which the results for the IC50 against human KHK-C and on human KHK-A were 38.6 nM and 50.2 nM, respectively. The same compound came in with an EC50 in experiment [1] of over 5000 nM.
As for `C[C@H]1CCN1c1nc2c(c(-c3cccc(CS(C)(=O)=O)c3)n1)CCC2` [Example 88, (S)-2-(2-methylazetidin-1-yl)-4-(3-((methylsulfonyl)methyl)phenyl)-6,7-dihydro-5H-cyclopenta[d]pyrimidine], the IC50 is 62.8 nM against human KHK-C and 75.3 nM against human KHK-A. In addition, the EC50 in experiment [1] was found to be 214 nM.
Regarding `C[C@H]1CCN1c1nc2c(c(-c3ccc(C(=O)NCCO)cc3)n1)CCC2` [Example 91, (S)—N-(2-hydroxyethyl)-4-(2-(2-methylazetidin-1-yl)-6,7-dihydro-5H-cyclopenta[d]pyrimidin-4-yl)benzamide], the IC50 on human KHK-C was determined as 55.6 nM; against human KHK-A, 45.2 nM. Further, in experiment [1], the EC50 is 120 nM.
On to `NS(=O)(=O)c1cccc(-c2nc(N3CC[C@@H]3CO)nc3c2CCC3)c1` [Example 92, (R)-3-(2-(2-(hydroxymethyl)azetidin-1-yl)-6,7-dihydro-5H-cyclopenta[d]pyrimidin-4-yl)benzenesulfonamide], for which the IC50 was found to be 93 nM against human KHK-C and 82.3 nM against human KHK-A. In experiment [1], this compound showed an EC50 of 368 nM.
With `NC(=O)c1ccc(-c2nc(N3CC[C@@H]3CO)nc3c2CCC3)cc1` [Example 95, (R)-4-(2-(2-(hydroxymethyl)azetidin-1-yl)-6,7-dihydro-5H-cyclopenta[d]pyrimidin-4-yl)benzamide], the IC50 against human KHK-C is 43.1 nM; on human KHK-A it was 60.3 nM. Besides, in experiment [1], the EC50 amounted to 221 nM.
Consider `C[C@H]1CCN1c1nc2c(c(-c3ccc(-c4nnn[nH]4)cc3)n1)CCC2` [Example 104, (S)-4-(4-(1H-tetrazol-5-yl)phenyl)-2-(2-methylazetidin-1-yl)-6,7-dihydro-5H-cyclopenta[d]pyrimidine], for which the IC50 at human KHK-C stood at 46.2 nM; against human KHK-A, 119 nM. Further, in experiment [1], the EC50 is over 5000 nM.
Take `C[C@@H]1CN(c2nc3c(c(-c4ccc(C(N)=O)cc4)n2)CCC3)[C@H]1C` [Example 106]: the IC50 against human KHK-C turned out to be 126 nM; against human KHK-A, 148 nM. The EC50 in experiment [1] (read-out: NRK CTG EC50, NRK-52E cells, fructose-mediated ATP-depletion, Cell-Titer Glo) was found to be 209 nM.

Source of the values: patent US12410160B2 (Gilead Sciences, Inc., priority 2021, dated 2025).
